Measurements taken from patent US6737383B1, “Herbicidal oxadiazolidines” (priority 1999, dated 2004).

Experiments:
bedstraw = experiment: Test B pre/postemergence bedstraw; assay type: in vivo, Galium aparine
In short: (§1)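 Test chemicals in a non-phytotoxic solvent mixture with surfactant were sprayed preemergence onto planted seeds and postemergence onto plants 2 to 18 cm tall (1- to 4-leaf stage). After twelve to sixteen days in a greenhouse, injury was visually rated against untreated controls from 0 (no effect) to 10 (complete control).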

blackgrass = experiment: Test B pre/postemergence blackgrass; assay type: in vivo, Alopecurus myosuroides
In short: as §1

surinam grass = experiment: Test B pre/postemergence surinam grass; assay type: in vivo, Brachiaria decumbens
In short: as §1

cocklebur = experiment: Test B pre/postemergence cocklebur; assay type: in vivo, Xanthium strumarium
In short: as §1

corn = experiment: Test B pre/postemergence corn; assay type: in vivo, Zea mays
In short: as §1

crabgrass = experiment: Test B pre/postemergence crabgrass; assay type: in vivo, Digitaria sanguinalis
In short: as §1

giant foxtail = experiment: Test B pre/postemergence giant foxtail; assay type: in vivo, Setaria faberii
In short: as §1

morningglory = experiment: Test B pre/postemergence morningglory; assay type: in vivo, Ipomoea hederacea
In short: as §1

pigweed = experiment: Test B pre/postemergence pigweed; assay type: in vivo, Amaranthus retroflexus
In short: as §1

rape = experiment: Test B pre/postemergence rape; assay type: in vivo, Brassica napus
In short: as §1

sugar beet = experiment: Test B pre/postemergence sugar beet; assay type: in vivo, Beta vulgaris
In short: as §1

wheat = experiment: Test B pre/postemergence wheat; assay type: in vivo, Triticum aestivum
In short: as §1

wild oat = experiment: Test B pre/postemergence wild oat; assay type: in vivo, Avena fatua
In short: as §1

purple nutsedge = experiment: Test B pre/postemergence purple nutsedge; assay type: in vivo, Cyperus rotundus
In short: as §1

rice = experiment: Test B flood test rice; assay type: in vivo, Oryza sativa
In short: (§2)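 Flood test on plants grown to the 2-leaf stage; treated plants kept in greenhouse twelve to sixteen days, then visually rated against controls on a 0 (no effect) to 10 (complete control) scale.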

bamyardgrass = experiment: Test B flood test barnyardgrass; assay type: in vivo, Echinochloa crus-galli
In short: as §2

[1] = Postemergence, Rate 62 g/ha, scale 0 to 10, 0 is no effect, 10 is complete control
[2] = Postemergence, Rate 250 g/ha, scale 0 to 10, 0 no effect, 10 complete control
[3] = Preemergence, Rate 62 g/ha, scale 0 to 10, 0 is no effect, 10 is complete control
[4] = Preemergence, Rate 125 g/ha, scale 0 to 10 (0 no effect, 10 complete control)
[5] = Preemergence, Rate 250 g/ha, scale of 0 to 10 where 0 is no effect and 10 is complete control
[6] = Preemergence, Rate 500 g/ha, scale 0 (no effect) to 10 (complete control)
[7] = Rate 125 g/ha, Postemergence, scale 0 to 10, 0 no effect, 10 complete control
[8] = Rate 500 g/ha, Postemergence, 0 to 10 scale (0 no effect, 10 complete control)
[9] = Rate 125 g/ha, Postemergence section (flood test species), scale 0 to 10, 0 no effect, 10 complete control
[10] = Rate 500 g/ha, Postemergence section of Table B, 0 to 10 scale (0 no effect, 10 complete control)
[11] = flood test, listed under Postemergence, Rate 250 g/ha, scale 0 to 10, 0 no effect, 10 complete control

SMILES: Cc1ccccc1-n1c(=O)on(C(=O)N(c2cc(OC(C)C)c(Cl)cc2Cl)C(C)C)c1=O [Compound 42]
- Bedstraw plant response rating (bedstraw; [1]): 0
- Bedstraw plant response rating (bedstraw; [2]): 0
- Plant response rating, Bedstraw (bedstraw; [3]): 0
- Plant response rating, Bedstraw (bedstraw; [4]): 0
- Plant response rating, Bedstraw (bedstraw; [5]): 0
- Bedstraw plant response rating (bedstraw; [6]): 0
- Bedstraw plant response rating (bedstraw; [7]): 0
- Blackgrass plant response rating (blackgrass; [1]): 0
- Blackgrass plant response rating (blackgrass; [2]): 0
- Plant response rating, Blackgrass (blackgrass; [3]): 0
- Plant response rating, Blackgrass (blackgrass; [4]): 0
- Plant response rating, Blackgrass (blackgrass; [5]): 0
- Blackgrass plant response rating (blackgrass; [6]): 0
- Blackgrass plant response rating (blackgrass; [7]): 0
- Blackgrass plant response rating (blackgrass; [8]): 0
- B. signalgrass plant response rating (surinam grass; [1]): 0
- B. signalgrass plant response rating (surinam grass; [2]): 0
- Plant response rating, B. signalgrass (surinam grass; [3]): 0
- Plant response rating, B. signalgrass (surinam grass; [4]): 0
- Plant response rating, B. signalgrass (surinam grass; [5]): 0
- B. signalgrass plant response rating (surinam grass; [6]): 0
- B. signalgrass plant response rating (surinam grass; [7]): 0
- B. signalgrass plant response rating (surinam grass; [8]): 0
- Cocklebur plant response rating (cocklebur; [1]): 0
- Cocklebur plant response rating (cocklebur; [2]): 0
- Plant response rating, Cocklebur (cocklebur; [3]): 0
- Plant response rating, Cocklebur (cocklebur; [4]): 0
- Plant response rating, Cocklebur (cocklebur; [5]): 0
- Cocklebur plant response rating (cocklebur; [6]): 0
- Cocklebur plant response rating (cocklebur; [7]): 0
- Cocklebur plant response rating (cocklebur; [8]): 0
- Corn plant response rating (corn; [1]): 0
- Corn plant response rating (corn; [2]): 0
- Plant response rating, Corn (corn; [3]): 0
- Plant response rating, Corn (corn; [4]): 0
- Plant response rating, Corn (corn; [5]): 0
- Corn plant response rating (corn; [6]): 0
- Corn plant response rating (corn; [7]): 0
- Corn plant response rating (corn; [8]): 0
- Crabgrass plant response rating (crabgrass; [1]): 0
- Crabgrass plant response rating (crabgrass; [2]): 0
- Plant response rating, Crabgrass (crabgrass; [3]): 0
- Plant response rating, Crabgrass (crabgrass; [4]): 0
- Plant response rating, Crabgrass (crabgrass; [5]): 0
- Crabgrass plant response rating (crabgrass; [6]): 0
- Crabgrass plant response rating (crabgrass; [7]): 0
- Crabgrass plant response rating (crabgrass; [8]): 0
- Giant foxtail plant response rating (giant foxtail; [1]): 0
- Giant foxtail plant response rating (giant foxtail; [2]): 0
- Plant response rating, Giant foxtail (giant foxtail; [3]): 0
- Plant response rating, Giant foxtail (giant foxtail; [4]): 0
- Plant response rating, Giant foxtail (giant foxtail; [5]): 0
- Giant foxtail plant response rating (giant foxtail; [6]): 0
- Giant foxtail plant response rating (giant foxtail; [7]): 0
- Giant foxtail plant response rating (giant foxtail; [8]): 0
- Morningglory plant response rating (morningglory; [1]): 0
- Morningglory plant response rating (morningglory; [2]): 0
- Plant response rating, Morningglory (morningglory; [3]): 0
- Plant response rating, Morningglory (morningglory; [4]): 0
- Plant response rating, Morningglory (morningglory; [5]): 0
- Morningglory plant response rating (morningglory; [6]): 0
- Morningglory plant response rating (morningglory; [7]): 0
- Morningglory plant response rating (morningglory; [8]): 1
- Redroot pigweed plant response rating (pigweed; [1]): 0
- Redroot pigweed plant response rating (pigweed; [2]): 0
- Plant response rating, Redroot pigweed (pigweed; [3]): 0
- Plant response rating, Redroot pigweed (pigweed; [4]): 0
- Plant response rating, Redroot pigweed (pigweed; [5]): 0
- Redroot pigweed plant response rating (pigweed; [6]): 0
- Redroot pigweed plant response rating (pigweed; [7]): 0
- Redroot pigweed plant response rating (pigweed; [8]): 2
- Rape plant response rating (rape; [1]): 0
- Rape plant response rating (rape; [2]): 0
- Plant response rating, Rape (rape; [3]): 0
- Plant response rating, Rape (rape; [4]): 0
- Plant response rating, Rape (rape; [5]): 0
- Rape plant response rating (rape; [6]): 0
- Rape plant response rating (rape; [7]): 0
- Rape plant response rating (rape; [8]): 0
- Sugarbeets plant response rating (sugar beet; [1]): 0
- Sugarbeets plant response rating (sugar beet; [2]): 0
- Plant response rating, Sugarbeets (sugar beet; [3]): 0
- Plant response rating, Sugarbeets (sugar beet; [4]): 0
- Plant response rating, Sugarbeets (sugar beet; [5]): 0
- Sugarbeets plant response rating (sugar beet; [6]): 0
- Sugarbeets plant response rating (sugar beet; [7]): 0
- Wheat plant response rating (wheat; [1]): 0
- Wheat plant response rating (wheat; [2]): 0
- Plant response rating, Wheat (wheat; [3]): 0
- Plant response rating, Wheat (wheat; [4]): 0
- Plant response rating, Wheat (wheat; [5]): 0
- Wheat plant response rating (wheat; [6]): 0
- Wheat plant response rating (wheat; [7]): 0
- Wild oats plant response rating (wild oat; [1]): 0
- Wild oats plant response rating (wild oat; [2]): 0
- Plant response rating, Wild oats (wild oat; [4]): 0
- Plant response rating, Wild oats (wild oat; [5]): 0
- Wild oats plant response rating (wild oat; [6]): 0
- Wild oats plant response rating (wild oat; [7]): 0
- Nutsedge plant response rating (purple nutsedge; [1]): 0
- Nutsedge plant response rating (purple nutsedge; [2]): 0
- Plant response rating, Nutsedge (purple nutsedge; [3]): 0
- Plant response rating, Nutsedge (purple nutsedge; [4]): 0
- Plant response rating, Nutsedge (purple nutsedge; [5]): 0
- Nutsedge plant response rating (purple nutsedge; [6]): 0
- Nutsedge plant response rating (purple nutsedge; [7]): 0
- Nutsedge plant response rating (purple nutsedge; [8]): 0
- Rice plant response rating (rice; [1]): 0
- Rice plant response rating (rice; [9]): 0
- Rice plant response rating (rice; [10]): 0
- Rice plant response rating (rice; [11]): 0
- Barnyardgrass plant response rating (bamyardgrass; [1]): 0
- Barnyardgrass plant response rating (bamyardgrass; [9]): 0
- Barnyardgrass plant response rating (bamyardgrass; [10]): 0
- Barnyardgrass plant response rating (bamyardgrass; [11]): 0
